Where no end group is shown, it is not given here.
Columns and labels:
[1] = test system: BxPC3 cells; test: In vitro binding kinetics of 125I-CaIX-P1 at two cell densities (negative control cells); design: species or system human; details: 300,000 vs 2,000,000 cells cultivated 48 h, incubation 10-120 min, serum free medium
Method: (§1) 300,000 and 2,000,000 human colorectal carcinoma HCT116 and pancreatic carcinoma BxPC3 cells were cultivated in 6-well plates for 48 h. RPMI 1640 medium with 1% BSA was used for cell blocking. Thereafter, 1 mL RPMI 1640 medium containing about 1.0 × 10^6 cpm ^125I-labeled peptide (specific activity ~50 GBq/μmol) was added and cell incubation was carried out for various time periods (10-120 min). To characterize the specificity of radioligand binding, co-incubation with unlabeled CaIX-P1 at various concentrations (10^-4 to 10^-9 mol/L) was performed. After incubation the cells were washed with ice cold PBS and lysed with 0.5 mL NaOH 0.3 mol/L. The lysate was collected and the radioactivity was measured with a γ-counter ([…]; Berthold Technologies). Bound radioactivity, representing the amount of peptide accumulation on HCT116 cells, was calculated as percentage applied dose per 10^6 cells. Binding specificity was further determined using octreotide, HBP-1 and VA131 as negative control competitors at the same concentration as CaIX-P1. All binding and competition experiments were performed in serum free medium in order to avoid peptide degradation by serum proteases.

[2] = test system: HCT116 cells; test: In vitro binding kinetics of 125I-CaIX-P1 at two cell densities; design: species or system human; details: 300,000 vs 2,000,000 cells cultivated 48 h; incubation 10-120 min; serum free medium; uptake as percent applied dose per 10^6 cells; p < 0.05
Method: as §1

[3] = test system: HCT116 cells; format: binding, human; details: 48 h
Method: as §1

[4] = serum stability; rapid degradation by serum proteases; cited from earlier work
[5] = test system: HCT116 cells; test: Fluorescence microscopy of cell labeling; format: cell-based, human; details: HCT116 cells grown to high density; 1 h at 37 °C; medium without FCS; 100 μL of 10^-4-10^-5 M stock in 1 mL; after fixation
Method: Human colorectal carcinoma HCT116 cells were seeded in culture plates (1,000,000–2,000,000 cells/well in 3 mL medium) containing glass coverslips and were allowed to grow for 48 h. The medium was replaced by 900 μL fresh medium (without FCS) and 100 μL 10^−4–10^−5 M sterilized stock solution of FITC-labeled-CaIX-P1 or fluorescein at the same concentration was added to the cells. The plates were incubated for 1 h at 37 °C. After incubation the cells were washed thrice with 1 mL ice cold PBS (pH 7.4). Subsequently the cells were fixed with 2% formaldehyde in PBS (pH 7.4) at […] for 20 min. This procedure was performed on ice. The cells were washed with ice cold PBS (1 × 600 μL, pH 7.4) and the cover slips were mounted on a slice with DAKO fluorescent medium. Cells were photographed using a Leica DM-RA2 fluorescence microscope. Digitalized figures were processed using standard imaging software (Adobe Photoshop 6.0/Illustrator 9.0).

YNTNHVPLSPKY [^125I-CaIX-P1, CaIX-P1 radiolabeled with 125I using the chloramine T method]
binding of 125I-CaIX-P1 on BxPC3 cells at different cell densities [1]: strongly decreased binding to the background level | binding of 125I-CaIX-P1 per 10^6 HCT116 cells with increasing cell density [2]: significantly increased binding

YNTNHVPLSPKY [CaIX-P1]
IC50 [3]: 1000 to 5000 nM | half-life in serum [4]: about 25 min

O=C1OC2(c3ccc(O)cc3Oc3cc(O)ccc32)c2ccccc21 [fluorescein]
fluorescence signal of cells [5]: strongly decreased signal to the background level

From PMC3497310, “Binding of the Phage Display Derived Peptide CaIX-P1 on Human Colorectal Carcinoma Cells Correlates with the Expression of Carbonic Anhydrase IX” (International Journal of Molecular Sciences, 2012)
